This note sets out measurements from ChEMBL document CHEMBL1158352, “Development of CoMFA and CoMSIA models of cytotoxicity data of anti-HIV-1-phenylamino-1H-imidazole derivatives” (Eur J Med Chem, 2009).

The series in a line: Cytotoxicity against human MT4 cells. It is filed as cell-based.

Molecules are shown by their SMILES.

A word on the CC50: it is the concentration giving 50% cytotoxicity. A higher CC50 goes with lower toxicity to the cells.

Turning to `Cc1[nH]c(=S)n(Nc2cccc(Cl)c2)c1-c1cccc(Cl)c1`, the CC50 was found to be 31 µM. `Cc1nc(S)n(Nc2cccc3ccccc23)c1-c1ccccc1`: the CC50 worked out at 12 µM. To `Cc1[nH]c(=S)n(Nc2ccc(Cl)cc2)c1-c1ccccc1` belongs 135 µM; to `Cc1[nH]c(=S)n(Nc2ccc(F)cc2)c1-c1ccccc1`, 220 µM.

Compound `COc1ccc(-c2c(C)[nH]c(=S)n2Nc2cccc(Cl)c2)cc1` yielded a CC50 of 38.7 µM.

`Cc1[nH]c(=S)n(Nc2cccc(Cl)c2)c1-c1ccc(Cl)cc1` came in with a CC50 of 40.8 µM. As for `Cc1c(-c2ccccc2)nc(S)n1Nc1cccc(Cl)c1`, the figure is 50 µM. Compound `Cc1[nH]c(=S)n(Nc2cccc(Cl)c2)c1-c1cccc(Br)c1` registered a CC50 of 44 µM. As for `Cc1nc(S)n(Nc2cccc(Cl)c2)c1-c1ccc(Br)cc1`, the figure is 33.2 µM. With `Cc1[nH]c(=S)n(Nc2cccc(Cl)c2)c1-c1ccccc1`, the CC50 came out at 66.7 µM. As for `COC(=O)c1c(C)nc(S)n1Nc1cccc(Cl)c1`, the figure is 190 µM. To `Cc1cccc(Nn2c(S)nc(C)c2C)c1` belongs 360 µM; to `Cc1cccc(Nn2c(-c3ccccc3)c(C(C)C)[nH]c2=S)c1`, 42.7 µM; to `Cc1ncn(Nc2cccc(Cl)c2)c1-c1cccc(C(=O)O)c1`, 161 µM.

As for `Cc1nc(S)n(Nc2cccc(Cl)c2)c1-c1cccc(C#N)c1`, the midpoint of cytotoxicity, the CC50, lay at 99.3 µM.

`Cc1[nH]c(=S)n(Nc2ccccc2Cl)c1-c1ccccc1` came in with a CC50 of 162 µM. To `Cc1ncn(Nc2ccccc2)c1C` belongs 352 µM; to `Cc1cccc(Nn2cnc(C)c2-c2ccccc2)c1`, 27 µM.

In turn, `COC(=O)c1cccc(-c2c(C)ncn2Nc2cccc(Cl)c2)c1` yielded a CC50 of 33.1 µM. To `Cc1ccc(Nn2c(-c3ccccc3)c(C)[nH]c2=S)cc1C` belongs 55.6 µM; to `Cc1cccc(Nn2cnc(C)c2-c2cccc(N)c2)c1`, 163 µM; to `COC(=O)c1c(C)ncn1Nc1cccc(Cl)c1`, 107 µM. To `Sc1nc(-c2ccccc2)c(-c2ccccc2)n1Nc1cccc(Cl)c1` belongs 36.3 µM; to `CCc1[nH]c(=S)n(Nc2cccc(C)c2)c1-c1ccccc1`, 53.6 µM; to `COC(=O)c1nc(S)n(Nc2cccc(Cl)c2)c1C`, 48.8 µM. To `Cc1nc(S)n(Nc2ccccc2)c1C` belongs 181 µM; to `Cc1ncn(Nc2cccc(Cl)c2)c1C`, 214 µM.

`Cc1nc(S)n(Nc2cccc(Cl)c2)c1C(=O)O`: the CC50 is 265 µM. The CC50 values of the last two compounds are within 1.5-fold of each other. For the compound `CCc1[nH]c(=S)n(Nc2cccc(Cl)c2)c1-c1ccccc1`, it took 39 µM to reach half-maximal cytotoxicity (CC50). To `Cc1nc(S)n(Nc2cccc(Cl)c2)c1C` belongs 259 µM; to `Cc1ncn(Nc2ccccc2)c1-c1ccccc1`, 52.1 µM; to `Cc1[nH]c(=S)n(Nc2ccccc2)c1-c1ccccc1`, 191 µM. The compound `Cc1cc(C)cc(Nn2c(-c3ccccc3)c(C)[nH]c2=S)c1` yielded a CC50 of 194 µM. As for `CSc1ccc(Nn2c(S)nc(C)c2-c2ccccc2)cc1`, the figure is 53.1 µM; as for `CCc1ncn(Nc2cccc(C)c2)c1-c1ccccc1`, 27.9 µM. As for `Clc1cccc(Nn2cnc3c2CCCC3)c1`, the figure is 67.3 µM; as for `Cc1cccc(Nn2cnc(C)c2-c2cccc(C#N)c2)c1`, 44.7 µM; as for `Cc1nc(S)n(Nc2cccc(Cl)c2)c1-c1cccc(C(=O)O)c1`, 120 µM.

On to `Cc1cccc(Nn2c(S)nc(C)c2-c2cccc(C(=O)O)c2)c1`, for which it took 187 µM to reach half-maximal cytotoxicity (CC50). To `Cc1[nH]c(=S)n(Nc2cccc(Br)c2)c1-c1ccccc1` belongs 44.3 µM. As for `Cc1cccc(Nn2c(-c3ccccc3)c(C)[nH]c2=S)c1`, the figure is 88.3 µM. The compound `Cc1nc(S)n(Nc2cc(Cl)ccc2Cl)c1-c1ccccc1` registered a half-maximal cytotoxic concentration (CC50) of 147 µM. This CC50 is about 1.7-fold higher than that of the compound before. As for `Cc1cc(C)cc(Nn2cnc(C)c2-c2ccccc2)c1`, the figure is 20.4 µM; as for `COC(=O)c1cccc(-c2c(C)nc(S)n2Nc2cccc(Cl)c2)c1`, 67.3 µM; as for `Cc1ccc(Nn2c(-c3ccccc3)c(C)[nH]c2=S)cc1Cl`, 44.3 µM. As for `CCc1ccc(Nn2c(S)nc(C)c2-c2ccccc2)cc1`, the figure is 34.4 µM; as for `Cc1ncn(Nc2ccc(F)cc2)c1-c1ccccc1`, 30.8 µM. To `Sc1nc2c(n1Nc1cccc(Cl)c1)CCCC2` belongs 126 µM; to `Cc1nc(S)n(Nc2cccc(Cl)c2)c1-c1cccc(N)c1`, 42.2 µM. The compound `Cc1[nH]c(=S)n(Nc2cccc([N+](=O)[O-])c2)c1-c1ccccc1` displayed a cytotoxic concentration (CC50) of 48.3 µM.

With `Cc1ncn(Nc2cccc(Cl)c2)c1-c1cccc(Br)c1`, the CC50 is 16.4 µM. To `COc1cccc(Nn2cnc(C)c2-c2ccccc2)c1` belongs 34.4 µM. As for `Cc1ncn(Nc2cccc(Cl)c2)c1-c1ccccc1`, the figure is 17.5 µM; as for `Cc1cccc(Nn2c(S)nc(C)c2-c2cccc(C#N)c2)c1`, 45.6 µM; as for `Cc1ncn(Nc2cccc(Cl)c2)c1-c1cccc(C#N)c1`, 36.8 µM. As for `COc1cccc(Nn2c(S)nc(C)c2-c2ccccc2)c1`, the figure is 38 µM. Compound `Cc1ncn(Nc2cccc(Cl)c2)c1-c1cccc(Cl)c1` showed a CC50 of 11.9 µM. To `Cc1cccc(Nn2cnc(C)c2C)c1` belongs 312 µM; to `Cc1ncn(Nc2cccc(Cl)c2)c1-c1cccc(N)c1`, 261 µM. As for `Cc1[nH]c(=S)n(Nc2cccc(F)c2)c1-c1ccccc1`, the figure is 109 µM.
